The data set in a line: Fraction bound to serum proteins. The format is in vitro ADME. As to conditions: human.

Data on 1 substance can be found in article PMC3521869 (Journal of medicinal chemistry, 2012).

Bridge positions count the residues as written; N and C are the ends. Square brackets hold non-standard residues; d marks the D form. 2Nal = N[C@@H](Cc1ccc2ccccc2c1)C(=O)O; Cit = NC(=O)NCCC[C@H](N)C(=O)O

A word on the fraction unbound: it is free concentration divided by total concentration. A high value points to much free substance. Consider “cyclo([2Nal]CY[Cit]KVCPKILQRCRRDSDCPGACICRGNGYCGSYR[Cit]CRG[dP]RR) (disulfide 2-38, 7-24, 14-26, 20-32) [MCo-CVX-5c]”, for which the fraction unbound was < 0.01.
